# Data: the supplement of paper PMC10307832
# Tests used:
# Experiment in all cases: relative viability (nuclei count vs DMSO), 5 days (fraction); higher = more cells survive
# AZ628 + Trametinib = compound: CC1=C(C=C(C=C1)NC(=O)C2=CC(=CC=C2)C(C)(C)C#N)NC3=CC4=C(C=C3)N=CN(C4=O)C [AZ628] + CC(=O)Nc1cccc(-n2c(=O)n(C3CC3)c(=O)c3c(Nc4ccc(I)cc4F)n(C)c(=O)c(C)c32)c1 [Trametinib] (partner 0.02 µM)
# Summary of the method: (§1)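 Relative viability was taken as the ratio of nuclei in treated wells to nuclei in vehicle wells. Lung cancer cell lines in 1536-well plates received compounds by pin tool one day after seeding, either one drug alone or a fixed anchor-drug dose plus five library-drug doses (not always all listed) in √10 steps. Nuclei were counted on 4× images after 5 days of treatment, and values are medians of duplicate plates.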
# AZ628 + Vorinostat = compound: CC1=C(C=C(C=C1)NC(=O)C2=CC(=CC=C2)C(C)(C)C#N)NC3=CC4=C(C=C3)N=CN(C4=O)C [AZ628] + O=C(CCCCCCC(=O)Nc1ccccc1)NO [Vorinostat] (partner 1 µM)
# Summary of the method: as §1
# [1] = compound: C[As](C)SC[C@H](NC(=O)CC[C@H](N)C(=O)O)C(=O)NCC(=O)O [Darinaparsin] + CS(=O)(=O)N1CCN(Cc2cc3nc(-c4cccc5[nH]ncc45)nc(N4CCOCC4)c3s2)CC1 [Pictilisib] (partner 1 µM)
# Summary of the method: as §1
# [2] = compound: C[As](C)SC[C@H](NC(=O)CC[C@H](N)C(=O)O)C(=O)NCC(=O)O [Darinaparsin] + C[C@@H](Oc1cc(-c2cnn(C3CCNCC3)c2)cnc1N)c1c(Cl)ccc(F)c1Cl [Crizotinib] (partner 1 µM)
# Summary of the method: as §1
cell line,measurement,setting,value
LCLC-97TM1,relative viability,AZ628 + Trametinib; first compound 0.08 µM,0.126
same,relative viability,AZ628 + Trametinib; first compound 0.253 µM,0.118
same,relative viability,AZ628 + Trametinib; first compound 0.8 µM,0.114
same,relative viability,AZ628 + Trametinib; first compound 2.53 µM,0.0994
same,relative viability,AZ628 + Trametinib; first compound 8 µM,0.116
same,relative viability,AZ628 + Vorinostat; first compound 0.08 µM,1.03
same,relative viability,AZ628 + Vorinostat; first compound 0.253 µM,0.729
same,relative viability,AZ628 + Vorinostat; first compound 0.8 µM,0.82
same,relative viability,AZ628 + Vorinostat; first compound 2.53 µM,0.756
same,relative viability,AZ628 + Vorinostat; first compound 8 µM,0.13
same,relative viability,[1]; first compound 0.08 µM,0.191
same,relative viability,[1]; first compound 0.8 µM,0.153
same,relative viability,[1]; first compound 2.53 µM,0.15
same,relative viability,[1]; first compound 8 µM,0.178
same,relative viability,[2]; first compound 0.08 µM,0.517
same,relative viability,[2]; first compound 0.8 µM,0.354
same,relative viability,[2]; first compound 2.53 µM,0.271
same,relative viability,[2]; first compound 8 µM,0.372
